Data as given in patent US6969702B2, “Compounds and methods for increasing neurogenesis” (priority 2002, dated 2005).
Marks after values point to notes of the source that are not given here. Square brackets hold non-standard residues; d marks the D form. Peptide text beside a SMILES is read from it.

How the values were obtained:
[1] = system: cAMP activation in mouse adult neural stem cells; assay: cAMP detection (HitHunter EFC Cyclic AMP Chemiluminescence Assay); details: for Fold Induction cAMP: vs vehicle
[2] = system: mouse adult neural stem cells; assay: ATP-assay: proliferation (ATP levels) of neurosphere-derived cells; details: for proliferation of neural stem cells: cAMP activators, GPCR-independent
[3] = Table 2, 1 nM (cAMP concentration)
[4] = Table 2, 100 nM (cAMP concentration)
[5] = Table 1, 100 nM, after 15 minutes

## CC[C@H](C)[C@H](NC(=O)[C@H](CCC(N)=O)NC(=O)[C@H](Cc1c[nH]cn1)NC(=O)[C@H](C)NC(=O)[C@@H](N)CC(C)C)C(=O)N[C@@H](Cc1ccc(O)cc1)C(=O)N[C@@H](CCC(N)=O)C(=O)N[C@@H](Cc1ccccc1)C(=O)N[C@H](C(=O)N[C@@H](CC(=O)O)C(=O)N[C@@H](CCCCN)C(=O)N[C@@H](CC(=O)O)C(=O)N[C@@H](CCCCN)C(=O)N[C@@H](CC(=O)O)C(=O)N[C@@H](CC(N)=O)C(=O)N[C@H](C(=O)N[C@@H](C)C(=O)N1CCC[C@H]1C(=O)N[C@@H](CCCNC(=N)N)C(=O)N[C@@H](CO)C(=O)N[C@@H](CCCCN)C(=O)N[C@H](C(=O)N[C@@H](CO)C(=O)N1CCC[C@H]1C(=O)N[C@@H](CCC(N)=O)C(=O)NCC(=O)N[C@@H](Cc1ccc(O)cc1)C(N)=O)[C@@H](C)CC)C(C)C)[C@@H](C)O [Adrenomedullin (26-52)] (H-LAHQIYQFTDKDKDNVAPRSKISPQGY-NH2; N-terminus and C-terminus assumed)
[1]; [3]
  cAMP (pmol/well): 0.33 ± 0.07 pmol/well
[2]; Table 2, 1 nM, 4 days
  ATP (nM ATP/well): 11.4 ± 0.7 nM ATP/well

## CC[C@H](C)[C@H](NC(=O)[C@H](CO)NC(=O)[C@H](CC(N)=O)NC(=O)[C@H](CC(C)C)NC(=O)[C@H](Cc1ccc(O)cc1)NC(=O)[C@H](CCCCN)NC(=O)[C@H](CCCCN)NC(=O)[C@@H](NC(=O)[C@H](C)NC(=O)[C@H](CCSC)NC(=O)[C@H](CCC(N)=O)NC(=O)[C@H](CCCCN)NC(=O)[C@H](CCCNC(=N)N)NC(=O)[C@H](CC(C)C)NC(=O)[C@H](CCCNC(=N)N)NC(=O)[C@@H](NC(=O)[C@H](Cc1ccc(O)cc1)NC(=O)[C@H](CC(N)=O)NC(=O)[C@H](CC(=O)O)NC(=O)[C@@H](NC(=O)[C@H](Cc1ccccc1)NC(=O)[C@@H](NC(=O)[C@H](C)NC(=O)[C@H](CC(=O)O)NC(=O)[C@H](CO)NC(=O)[C@@H](N)Cc1c[nH]cn1)C(C)C)[C@@H](C)O)[C@@H](C)O)C(C)C)C(=O)N[C@@H](CC(C)C)C(=O)N[C@@H](CC(N)=O)C(N)=O [Vasoactive Intestinal Peptide (Human, Porcine, Rat)]
[1]; [4]
  cAMP (pmol/well): 0.39 ± 0.12 pmol/well
[2]; Table 2, 1000 nM, 4 days
  ATP (nM ATP/well): 20.6 ± 1.2 nM ATP/well

## CCCC(=O)Nc1ncnc2c1ncn2[C@@H]1O[C@H](CO)[C@@H](O)[C@H]1OC(=O)CCC [N-6,2-O-Dibutyryladenosine, n-6,2-o-dibutyryladenosine]
[1]; [5]
  cAMP (pmol/well): 0.10 ± 0.01 pmol/well
  Fold Induction cAMP: 4.5** fold
[2]; Table 1, 100 nM, 4 days in culture
  ATP (nM ATP/well): 13.9 ± 1.1 nM ATP/well
[2]; Table 1, 100 nM, 4 days, vs vehicle treated cells
  Fold Induction ATP: 1.5** fold
[2]
  proliferation of neural stem cells: increase

## CC(C)C[C@H](NC(=O)[C@H](CC(C)C)NC(=O)[C@@H](Cc1c[nH]c2ccccc12)NC(=O)[C@H](Cc1ccccc1)NC(=O)[C@@H](Cc1c[nH]c2ccccc12)NC(=O)[C@H](CCC(N)=O)NC(=O)[C@H](CCC(N)=O)NC(=O)[C@@H]1CCCN1C(=O)[C@H](CCCCN)NC(=O)[C@@H]1CCCN1C(=O)[C@@H](CCCNC(=N)N)NC(=O)[C@@H]1CCCN1C(=O)CNC(=O)[C@H](CC(C)C)NC(=O)[C@H](CC(C)C)NC(=O)[C@H](Cc1ccc(O)cc1)NC(=O)CNC(=O)[C@H](C)NC(=O)[C@H](CO)NC(=O)[C@H](CC(N)=O)NC(=O)[C@H](CC(C)C)NC(=O)[C@@H](NC(=O)[C@H](Cc1c[nH]c2ccccc12)NC(=O)CN)[C@@H](C)O)C(N)=O [Galanin (1-13)-Spantide-Amide, M40] (H-GWTLNSAGYLLGP[dR]PKPQQ[dW]F[dW]LL-NH2; N-terminus assumed)
[1]; [3]
  cAMP (pmol/well): 0.82 ± 0.08 pmol/well
[2]; Table 2, 100 nM, 4 days
  ATP (nM ATP/well): 7.10 ± 0.5 nM ATP/well

## CCCC[C@H](NC(=O)[C@H](CO)NC(=O)[C@H](CC(N)=O)NC(=O)[C@H](CC(C)C)NC(=O)[C@H](Cc1c[nH]cn1)NC(=O)[C@H](CCCCN)NC(=O)CNC(=O)[C@H](CC(C)C)NC(=O)[C@H](CC(N)=O)NC(=O)[C@H](Cc1c[nH]cn1)NC(=O)[C@H](CCCC)NC(=O)[C@H](CC(C)C)NC(=O)[C@H](CCC(N)=O)NC(=O)[C@@H](NC(=O)[C@H](CCC(=O)O)NC(=O)[C@H](CO)NC(=O)[C@@H](NC(=O)[C@@H](N)CO)C(C)C)[C@@H](C)CC)C(=O)N[C@@H](CCC(=O)O)C(=O)N[C@@H](CCCNC(=N)N)C(=O)N[C@H](C(=O)N[C@@H](CCC(=O)O)C(=O)N[C@@H](Cc1c[nH]c2ccccc12)C(=O)N[C@@H](CC(C)C)C(=O)N[C@@H](CCCNC(=N)N)C(=O)N[C@@H](CCCCN)C(=O)N[C@@H](CCCCN)C(=O)N[C@@H](CC(C)C)C(=O)N[C@@H](CCC(N)=O)C(=O)N[C@@H](CC(=O)O)C(=O)N[C@H](C(=O)N[C@@H](Cc1c[nH]cn1)C(=O)N[C@@H](CC(N)=O)C(=O)N[C@@H](Cc1ccc(O)cc1)C(N)=O)C(C)C)C(C)C [[Nle8,18, Tyr34]-Parathyroid Hormone (1-34) Amide (Human)]
[1]; Table 2, 10 nM (cAMP concentration)
  cAMP (pmol/well): 0.16 ± 0.05 pmol/well
[1]; Table 2, 10 nM
  Fold Induction cAMP: 2.6* (10 nM) fold
[2]; Table 2, 1000 nM, 4 days
  ATP (nM ATP/well): 23.5 ± 2.7 nM ATP/well
[2]; Table 2, 1000 nM, 4 days, vs vehicle
  Fold Induction ATP: 1.7** fold

## Oc1ccc2c3c1O[C@H]1c4[nH]c5c(c4C[C@@]4(O)[C@@H](C2)N(CC2CC2)CC[C@]314)C[C@@]1(O)[C@H]2Cc3ccc(O)c4c3[C@@]1(CCN2CC1CC1)[C@H]5O4 [Nor-Binaltorphimine, nor-Binaltorphimine]
[1]; Mus musculus, Neural stem cell, read-out: Fold Induction cAMP
  fold induction at 10 pM: 6.3
[1]; Table 2, 0.01 nM (bracketed cAMP concentration)
  cAMP (pmol/well): 6.10 ± 3.72 pmol/well
[2]; Mus musculus, Neural stem cell, 96 h, read-out: Fold Induction ATP
  fold induction at 0.0001 µM: 1.4
[2]; Table 2, 0.1 nM, 4 days
  ATP (nM ATP/well): 19.4 ± 3.2 nM ATP/well

## CC[C@H](C)[C@H](NC(=O)[C@H](CC(=O)O)NC(=O)[C@H](CC(C)C)NC(=O)[C@H](Cc1cnc[nH]1)NC(=O)[C@@H]1CSSC[C@H](N)C(=O)N[C@@H](CO)C(=O)N[C@H]2CSSC[C@H](NC(=O)[C@H](CCC(=O)O)NC(=O)[C@H](CCCCN)NC(=O)[C@H](CC(=O)O)NC(=O)[C@H](CCSC)NC(=O)[C@H](CC(C)C)NC(=O)[C@H](CO)NC(=O)[C@H](CO)NC2=O)C(=O)N[C@@H](C(C)C)C(=O)N[C@@H](Cc2ccc(O)cc2)C(=O)N[C@@H](Cc2ccccc2)C(=O)N1)C(=O)N[C@H](C(=O)N[C@@H](Cc1c[nH]c2ccccc12)C(=O)O)[C@@H](C)CC [Endothelin-1 (human, Bovine, Canine, Mouse, Porcine, Rat)]
[2]; Table 4, 10 nM
  ATP (nM ATP/well): 14.4 ± 2.4 nM ATP/well
[2]; Table 4, 10 nM, vs vehicle, 0.01 µM
  Fold Induction ATP: 3.2* fold

## CC[C@H](C)[C@@H]1NC(=O)[C@H](CCCNC(=N)N)NC(=O)[C@H](CC(=O)O)NC(=O)[C@H](CCSC)NC(=O)[C@H](CCCNC(=N)N)NC(=O)CNC(=O)CNC(=O)[C@H](Cc2ccccc2)NC(=O)[C@@H](NC(=O)[C@H](CO)NC(=O)[C@H](CO)NC(=O)[C@H](CCCNC(=N)N)NC(=O)[C@H](CCCNC(=N)N)NC(=O)[C@H](CC(C)C)NC(=O)[C@@H](N)CO)CSSC[C@@H](C(=O)N[C@@H](CC(N)=O)C(=O)N[C@@H](CO)C(=O)N[C@@H](Cc2ccccc2)C(=O)N[C@@H](CCCNC(=N)N)C(=O)N[C@@H](Cc2ccc(O)cc2)C(=O)O)NC(=O)CNC(=O)[C@H](CC(C)C)NC(=O)CNC(=O)[C@H](CO)NC(=O)[C@H](CCC(N)=O)NC(=O)[C@H](C)NC(=O)CNC1=O [ANP (human)]
[2]; Table 4, 10 nM
  ATP (nM ATP/well): 12.7 ± 1.0 nM ATP/well
[2]; Table 4, 10 nM, vs vehicle
  Fold Induction ATP: 1.3* fold

## CC[C@H](C)[C@@H]1NC(=O)[C@H](CCCNC(=N)N)NC(=O)[C@H](CC(=O)O)NC(=O)[C@H](CCSC)NC(=O)[C@H](CCCNC(=N)N)NC(=O)CNC(=O)CNC(=O)[C@H](Cc2ccccc2)NC(=O)[C@@H](NC(=O)[C@H](CO)NC(=O)[C@H](CO)NC(=O)[C@H](CCCNC(=N)N)NC(=O)[C@H](CCCNC(=N)N)NC(=O)[C@H](CC(C)C)NC(=O)[C@@H](N)CO)CSSC[C@@H](C(=O)N[C@@H](CC(N)=O)C(=O)N[C@@H](CO)C(=O)N[C@@H](Cc2ccccc2)C(=O)N[C@@H](CCCNC(=N)N)C(=O)N[C@@H](Cc2ccc(O)cc2)C(=O)O)NC(=O)CNC(=O)[C@H](CC(C)C)NC(=O)CNC(=O)[C@H](CO)NC(=O)[C@H](CCC(N)=O)NC(=O)[C@H](C)NC(=O)CNC(=O)[C@H]([C@@H](C)CC)NC(=O)[C@H](CCCNC(=N)N)NC(=O)[C@H](CC(=O)O)NC(=O)[C@H](CCSC)NC(=O)[C@H](CCCNC(=N)N)NC(=O)CNC(=O)CNC(=O)[C@H](Cc2ccccc2)NC(=O)[C@@H](NC(=O)[C@H](CO)NC(=O)[C@H](CO)NC(=O)[C@H](CCCNC(=N)N)NC(=O)[C@H](CCCNC(=N)N)NC(=O)[C@H](CC(C)C)NC(=O)[C@@H](N)CO)CSSC[C@@H](C(=O)N[C@@H](CC(N)=O)C(=O)N[C@@H](CO)C(=O)N[C@@H](Cc2ccccc2)C(=O)N[C@@H](CCCNC(=N)N)C(=O)N[C@@H](Cc2ccc(O)cc2)C(=O)O)NC(=O)CNC(=O)[C@H](CC(C)C)NC(=O)CNC(=O)[C@H](CO)NC(=O)[C@H](CCC(N)=O)NC(=O)[C@H](C)NC(=O)CNC1=O [Beta-ANP]
[1]; [4]
  cAMP (pmol/well): 070 ± 0.04 pmol/well
[2]; Table 2, 100 nM, 4 days
  ATP (nM ATP/well): 13.6 ± 2.1 nM ATP/well

## CC(C)C[C@H](NC(=O)[C@H](CCCCN)NC(=O)CNC(=O)[C@H](CC(C)C)NC(=O)[C@@H](N)C(C)C)C(=O)N[C@@H](CO)C(=O)N[C@@H](CCC(N)=O)C(=O)N[C@@H](CCC(=O)O)C(=O)N[C@@H](CC(C)C)C(=O)N[C@@H](Cc1c[nH]cn1)C(=O)N[C@@H](CCCCN)C(=O)N[C@@H](CC(C)C)C(=O)N[C@@H](CCC(N)=O)C(=O)N[C@H](C(=O)N[C@@H](Cc1ccc(O)cc1)C(=O)N1CCC[C@H]1C(=O)N[C@@H](CCCNC(=N)N)C(=O)N[C@H](C(=O)N[C@@H](CC(N)=O)C(=O)N[C@H](C(=O)NCC(=O)N[C@@H](CO)C(=O)NCC(=O)N[C@H](C(=O)N1CCC[C@H]1C(N)=O)[C@@H](C)O)[C@@H](C)O)[C@@H](C)O)[C@@H](C)O (H-VLGKLSQELHKLQTYPRTNTGSGTP-NH2; N-terminus and C-terminus assumed)
[2]; Table 4, 100 nM
  ATP (nM ATP/well): 15.0 ± 2.2 nM ATP/well

## CC(C)Cn1c(=O)n(C)c(=O)c2[nH]cnc21 [IBMX, 3-Isobutyl-1-Methylxanthine]
[2]
  proliferation of neural stem cells: increase
